# Entries after “also recorded” stand apart in the source; their conditions may differ.
# Tests used:
# murine T-cells = conditions: extremely low concentrations
# Excerpt: (§1) Mouse splenocytes were activated using CD3/CD28 antibodies and cultured in the presence of recombinant IL-2 and IL-7 for 24 hrs prior to transduction with CAR-T vectors.
# (§2) Cells were stained using fluorochrome labelled antibodies against CD4, CD8, CD44, CD62L to phenotype the murine CAR-T-cells following manufacturing. Human CAR-T-cells were phenotyped using fluorochrome-conjugated antibodies against CD4, CD8, CD45RA, CD45RO, CD44, CD62L, CCR7, CD27, PD-1 and CD69. A fixable live/dead dye was used to distinguish between live or dead cells.
# murine CAR-T-cells = assay: Flow cytometry phenotyping of murine CAR-T-cells after manufacturing; assay type: cell-based, mouse
# Excerpt: as §1, §2
# Splenocytes from C57BL/6 donor mice were activated with 1 μg mL^−1 anti-CD3, 1 μg mL-1 anti-CD28 in the presence of IL-2 and 200 pg mL-1 IL-7 for 1 day then ficoll gradient treatment. Cells were transduced in plates coated with 1 μg mL of retronectin using supernatant produced from a GP+86 LXSN-anti-Her2 CAR packaging cell line. The transduced cells were then expanded in complete RPMI with the same concentration of IL-2 and IL-7 with or without 5 μM of PTX-200. Fresh IL-2 and IL-7 in complete media were added to all CAR-T-cells 2 days post-transduction.
# human CAR-T-cells [1] = assay: Flow cytometry phenotyping of human CAR-T-cells from PBMC donors; assay type: cell-based
# Experimental: Human PBMCs were extracted from buffy packs (Australian Red Cross Blood Service). They were activated using anti-CD3 antibody (OKT3) for 2 days before transduction for 48 hours, all in the presence of IL-2.
# Buffy coats from three donors were processed to isolate PBMCs, where 50 million PBMCs were cultured for 2 days in the presence of media containing anti-CD3 antibodies (OKT3, 1.5 μg per mL) and recombinant IL-2 (600 U/mL). […] Samples were collected either 24 or 72 hours later.
# human CAR-T-cells [2] = assay: Mass spectrometry of cellular proteome; assay type: cell-based; conditions: treatment of PBMCs
# Excerpt: At each time point, cells were collected and washed three times with cold DPBS before cell lysis for global proteomic analysis.
# Cells were homogenised/solubilised containing protease and phosphatase inhibitor (HALT) by tip-probe sonication, quantified, normalized and reduced (dithiothreitol, DTT), alkylated (iodoacetamide), before Sera-Mag Speed Bead-based protein digestion with LysC (enzyme:substrate 1:100, Wako Pure Chemical Industries) trypsin (enzyme:substrate 1:50). […] Peptides desalted (SDB-RPS Stage-Tips), and analysed for global cellular proteome.
# Spectra acquired in data dependent acquisition on an Orbitrap Q-Exactive HF-X mass spectrometer coupled to an Easy-nLC 1200 (Thermo Fisher Scientific) ultra-high pressure liquid chromatography (UHPLC) pump. […] The most intense MS1 ions were selected for MS2 analysis, fragmented by higher-energy collisional dissociation with normalized collision energy of 33. Precursors were filtered according to charge state≥2, AGC set at 1e5 for MS/MS, with monoisotopic peak used.
# Mass spectra were pre-processed and processed using MaxQuant (1.6.14). […]
# For further data analysis, the normalized intensities were converted into log 2 ratios of the intensities over the median intensity measured for each protein across each sample group, with statistical analyses performed using Student's T-test or ANOVA (p-value<0.05 was considered significant). […]
# MC-38-hHer2 = MC-38-hHer2 colon cancer model in hHer2 transgenic mice; assay type: in vivo, mouse
# Experimental: C57BL/6J wildtype (WT) and human Her2 (hHer2) transgenic mouse lines were all in bred and maintained at the Peter MacCallum Cancer Centre (Victoria, Australia). Mice between the age of 6 and 16 weeks were gender-matched and randomised into different treatment groups.
# Her2 transgenic recipients were either injected subcutaneously with 2.5×10^5 of MC38-hHer2 or 2.5×10^5 of E0771-hHer2 into the mammary fat pad with. Once the tumours become palpable and they were measured using a manual caliper and tumour area calculated in millimetres squared (mm^2, length×width). On day 6-7 post-tumour inoculation, tumour-bearing Her2+ mice were ranodmised to have an average tumour size of 20 mm^2, 20×10^6 of CAR-transduced T-cells were adoptively transferred into these recipients. 50 000 U of IL-2 was administered via intraperitoneal injection 5 times over the next 2 days. Tumour sizes were measured and monitored every 2-3 days until their tumour size exceed 120 mm^2 or until the tumour-bearing mice reached a designated experimental time point.
# [3] = Immune subsets in spleen and tumour, MC-38-hHer2 model; assay type: in vivo, mouse; conditions: TCN-P as adjuvant in the presence of CAR-T-cells
# Excerpt: Blood of mice was collected directly into EDTA-containing tube via submandibular bleeding at day 8-9 post-treatment. At the experimental endpoint, various organs including tumour, draining lymph node (dLN) and spleen were collected immediately after euthanasia. Single cell suspension from the dLN and spleen were achieved by processing these organs through a 70 μm filter. For splenocytes, red blood cells were lysed with ACK lysis buffer. Solid tumours were manually sliced and digested with DMEM containing 1 mg mL^−1 type IV collagenase and 0.02 mg mL^−1 DNAse for 30 mins at 37° C. in a rocking incubation at 120 r.p.m. Digestion was neutralised with DMEM and processed through a 70 μm filter and resuspended in either FACS buffer or complete RPMI media. […]
# Cells were blocked for 15 mins at room temperature with Fc receptor block (clone 2.4G2 of the hybridoma supernatant diluted 1:50 with FACS buffer). […] The number of target T-cell population was calculated by using: the number of input beads in the sample/bead events×events of targeted population.
structure (smiles),measurement,setting,value
"CN1N=C(N)c2cn([C@@H]3O[C@H](COP(=O)(O)O)[C@@H](O)[C@H]3O)c3ncnc1c23 [TCN-P, triciribine 5′-monophosphate]",tolerability by transduced T-cells,murine T-cells,well-tolerated
same,ratio of CD4:CD8 T-cells,"murine CAR-T-cells; TCN-P conditioning during CAR-T manufacturing, prior to administration",unchanged
same,central memory CD8+ CAR-T-cells (CD44+ CD62L+),murine CAR-T-cells; TCN-P preconditioning during CAR-T manufacturing,significant enrichment
same,effector T (TE) cells in CD8+ CAR-T-cells,"human CAR-T-cells [1]; 24 hrs, n=3 donors, control/vehicle 8%",5%
same,"Central memory T (TCM) cells (CD45RO+ CD62L+) in CD8+ CAR-T-cells, mean","human CAR-T-cells [1]; 24 hrs, n=3 donors, control/vehicle 11%",17%
same,Central memory T (TCM) cells (CD45RO+ CD62L+) in CD8+ CAR-T-cells,"human CAR-T-cells [1]; 3 days, after 24 hour treatment, n=3, control/vehicle 9%",16%
same,effector T (TE) cells in CD8+ CAR-T-cells,"human CAR-T-cells [1]; 3 days, after 24 hour treatment, n=3, control/vehicle 35%",23%
same,"CCR7+ TCM, mean","human CAR-T-cells [1]; CD8+ CAR-T, pre-treatment, from 9%",16%
same,CCR7+ TE,"human CAR-T-cells [1]; CD8+ CAR-T, pre-treatment, from 35%",23%
same,TCM or TE phenotype of CD4+ CAR-T-cells,"human CAR-T-cells [1]; pre-treatment, 24 hrs and 3 days",did not have any effect
same,TREG proportions (CD4+CD25+FoxP3+) in CD4+ transduced CAR-T-cells,"human CAR-T-cells [1]; pre-treatment, low concentrations",reduced
same,enrichment of proteins associated with interferon signalling and anti-viral activity,human CAR-T-cells [2],increased enrichment
same,proteins associated with metabolism and RNA processing,human CAR-T-cells [2],enriched
same,"tumour control / tumour killing, tumour sizes until day 14",MC-38-hHer2; 25 mg/kg TCN-P adjuvant every 3 days following Her2-targeting CAR-T administration,significantly improved
same,median survival duration,"MC-38-hHer2; TCN-P 25 mg/Kg, 20×10^6 CAR-T-cells, control group 15 days",20 days
same,anti-tumour effect (tumour growth),"MC-38-hHer2; TCN-P alone, 5, 25 or 50 mg/Kg i.p. every 3-4 days",dosage dependent anti-tumour effect; also recorded: strong anti-tumour effect
same,reduction of intratumoral Tregs,[3],50%
